Data taken from US6632643B2, “Use of α-1,4-glucan lyase for preparation of 1,5-D-hydrofructose” (Danisco A/S, priority 1993, dated 2003).
Marks after values point to notes of the source that are not given here.

What was measured:
[1] = tested on: lyase from M. costata; experiment: Relative degrading rates of the lyase from M. costata towards various substrates; format: biochemical, Morchella costata; settings: for activity (maltotetraose as 100%): purified fungal lyase, section B.1.4.3
[2] = tested on: M. costata lyase; experiment: Reversible and irreversible inhibitors of the fungal lyase (M. costata); format: biochemical, Morchella costata; settings: for decrease of lyase activity (inhibition): 0.1 M inhibitor
Method: (§1) The reaction was carried out at 30 ° C. for 30 min and stopped by the addition of 3,5-dinitrosalicylic acid reagent. Optical density at 550 nm was measured after standing at room temperature for 10 min.
Under the same assay conditions and in the presence of 2 mM PCMB, the activity decreased by 60% for the M. costata lyase and 98% for the lyase from the fungal infected red algae. This means that the fungal lyase was much less sensitive to heavy metal inhibition.

[3] = tested on: lyase from M. vulgaris; experiment: Relative degrading rates of the lyase from M. vulgaris towards various substrates; format: biochemical, Morchella vulgaris; settings: for Activity (%) (maltotetraose = 100%): all substrates 10 mg ml^−1
Method: The activity observed for maltotetraose is treated as 100%. The final concentration of all substrates was 10 mg ml^−1.

[4] = tested on: α-1,4-glucan lyase from the parasite-free red seaweed Gracilariopsis lemaneiformis; experiment: Degradation rates of the Californian algal lyase on various substrates; format: biochemical; settings: for AF released: substrate 10 mg/ml, pH 3.8, 40 min at 45° C.
Method: Reaction conditions: The reaction mixture contained 10 mM of HOAc-NaOAc (pH 3.8). The substrate concentration was 10 mg/ml. The final volume was 100 ul after the addition of lyase and water. The reaction time was 40 min at 45° C.

[5] = tested on: M. vulgaris lyase; experiment: Reversible inhibitors of the M. vulgaris lyase; format: biochemical, Morchella vulgaris; settings: 0.1 M inhibitor
Method: as §1

[6] = Induction period of yogurt salad dressing with 50% oil; settings: 500 ppm; PF = IP with antioxidant / IP without
Description: For each temperature defined as PF=IP of the oil with added antioxidant/IP of the same oil without added antioxidant

[7] = Electrochemical oxygen consumption in methyl linoleate emulsion; settings: AF 15, 146 and 680 μM; MMb initiated; pH 5.8; 25.0 °C
Method: The activity of AF was investigated in a methyl linoleate emulsion as described by Jorgensen and Skibsted (Z. Lebensm. Unters. Forsch. (1993) 196: 423-429) with minor modifications: To 5.00 ml of a 1.33 mM methyl linoleate emulsion in 5.0 mM aqueous phosphate buffer with pH=5.8 and 0.2 w/w % Tween 20 as emulsifier was added AF in the following concentrations: 0, 15, 146 and 680μM. The oxidation in the system was initiated by addition of 50 μl 0.26 M metmyoglobin (MMb) final concentration 0.26 mM. Immediately after initiating the reaction the sample was injected to a thermostated (25.0±0.1° C.) 70 μl closed cell, effectively excluding diffusion of oxygen into the system. The oxygen consumption was measured by a Clark electrode, which was connected to a PC data collection program. The relative oxygen concentration (%) was registered every 30s.

[8] = ESR analysis of hydroxyl radical scavenging (Fenton reaction, DMPO spin trap); settings: H2O2 0.17 mM, Fe2+ 4.8 μM
Method: Hydroxyl radicals were generated by a Fenton reaction with H2O2 (0.17 mM) and FeSO4 (4.8 μM). The generated radicals were trapped by 5,5-dimethyl-1-pyrroline N-oxide (DMPO, 9.7 mM). AF was added in concentrations of 1.3 mM and 6.3 mM. A water soluble extract of rosemary (Rosmarinus officinalis L.) was analyzed in a concentration of 0.25 mg/ml (in grams equivalent to 1.26 mM AF). Measurements were carried out at room temperature (20±1° C.) after 120 s and repeated for the same reaction mixture after 300 s with the following spectrometer settings: Center field 3475.60 G; sweep width 55 G; microwave power 20 mW; modulation frequency 100 kHz; modulation amplitude 1.01 G; receiver gain 1.00·10^5; conversion time 81.92 ms time constant 163.84 ms and sweep time 83.89 s.
The generated hydroxyl radicals were trapped by DMPO. The spin adduct gives rise to a characteristic 1:2:2:1 ESR spectrum. The peak height of the spectrum is proportional to the quantitative amount of generated spin adduct. Addition of both DMPO and AF will set up a competition between the spin trap and AF. A reduction of peak height will indicate a good scavenging activity of AF.

[9] = Reduction of 3,5-dinitrosalicylic acid by AF; format: physicochemical
[10] = Induction period of 50% mayonnaise in bomb calorimeter, 80° C., pure O2; settings: +500 ppm
Method: In the test procedure the anti-oxidants were added to the mayonnaise to provide an anti-oxidant concentration in the order of about 500 ppm. The mayonnaise was then placed in a bomb calorimeter at temperature 80° C. containing pure O2. An induction period to the onset of substantial oxidation of the product is then measured.

[11] = tested on: α-1,4-glucan lyase isolated from M. costata; experiment: Oligosaccharide specificity and AF formation by M. costata lyase, Dionex HPLC; format: biochemical, Morchella costata; settings: 30° C.
Method: The specificity of α-1,4-glucan lyase isolated from M. costata for different oligosaccharides was tested. […] The oligosaccharides were dissolved in H2O at a concentration of 8 mg/ml. The enzyme assay contained 150 μl substrate G2/G3/G4/G5/G6/G7, 120 μl 0.1M MBS pH 6.3 and 30 μl purified enzyme. The reaction mixture was incubated for 60 min at 30° C. Afterwards the reaction was stopped by boiling for 3 min and 900 μl absolute ethanol was added for precipitation. After centrifugation at 20.000×g for 5 min at 4° C. the supernatant was transferred to a new eppendorf tube and lyophilized.
The freeze-dried samples were dissolved in 1000 μl H2O and were filtrated through a 0.22 μm Millipore filter before 25 μl of the sample was loaded on the Dionex HPLC.
Analyses were performed on a Dionex 4500i chromatography system consisting of a GPM-2 pump and a PED detector which was used in pulse-amperometric detection mode.
α-1,4-glucan lyase from M.costata hydrolyses starch to the end-product 1,5-anhydrofructose. The end-product was shown by HPLC, method 2. The enzyme assay contained 500 μl amylopectin (20 mg/ml, dissolved in H2O), 400 μl 0.1M MES pH 6.3 and 100 μl purified enzyme. The reaction mixture was incubated at 30° C. and the reaction was stopped by boiling after 30 or 120 min incubation. […]

[12] = tested on: lyase from the fungal infected red algae; experiment: Inhibition, activation and stabilisation of the lyase from fungal infected algae; format: biochemical, fungal infected Gracilariopsis lemaneiformis
Method: […] The reaction was carried out at 30° C. for 30 min and stopped by the addition of 3,5-dinitrosalicylic acid reagent. Optical density at 550 nm was measured after standing at room temperature for 10 min.

[13] = tested on: α-1,4-glucan lyase from the parasite-free red seaweed Gracilariopsis lemaneiformis; experiment: PCMB inhibition of the lyase from Californian alga; format: biochemical; settings: final concentration 2 mM
Method: 7. At a final concentration of 2 mM, p-chloromercuribenzoic acid (PCMB) inhibited the lyase activity by 96%, indicating the —SH group(s) is essential for the enzymatic activity.

[14] = tested on: α-1,4-glucan lyase; experiment: Activity of the lyase towards maltosaccharides (summary); format: biochemical
[15] = tested on: lyase from the fungal infected algae; experiment: Effect of reaction media on production of AF by the lyase; format: biochemical, fungal infected Gracilariopsis lemaneiformis; settings: NaCl 0.85% (0.145 M) in the reaction mixture
Description: The production of AF using either pure water or 0.85% NaCl as reaction medium decreased the yield.

[16] = tested on: lyase from the fungal infected Gracilariopsis lemaneiformis; experiment: Reaction rates with glycogen and amylopectin, lyase from fungal infected Gracilariopsis lemaneiformis; format: biochemical

O=C[C@H](O)[C@@H](O)[C@H](O)[C@H](O)CO [Glucose, glucose]
degradation (AF detectable on TLC plates) ([1]; incubated for 48 h): no AF detectable | decrease of lyase activity (inhibition) ([2]; Amylopectin 2%): 7% | decrease of lyase activity (inhibition) ([2]; Glycogen 1% (10 mg/ml)): 0.000% | decrease of lyase activity (inhibition) ([2]; Glycogen 1% (10 mg/ml), listed as glucose): not affected | degradation (AF detectable on TLC plates) ([3]; incubated for 48 h): no AF detectable | degradation by the lyase [4]: not able to degrade | inhibition of lyase reaction ([5]; Amylopectin (1%)): 28% | inhibition of lyase reaction ([5]; Glycogen (1%)): 5%

O=C1CO[C@H](CO)[C@@H](O)[C@@H]1O [AF, 1,5-D-anhydrofructose]
PF [6]: 1.06 | oxygen consumption (relative oxygen concentration) [7]: a lag-phase is observed | Peak height [120 s] ([8]; Anhydro fructose 1.3 mM): 2634 | Peak height [300 s] ([8]; Anhydro fructose 1.3 mM): 2545 | Peak height [120 s] ([8]; Anhydro fructose 6.3 mM): 1781 | Peak height [300 s] ([8]; Anhydro fructose 6.3 mM): 1900 | reduction of 3,5-dinitrosalicylic acid to 3-amino-5-nitrosalicylic acid [9]: can easily reduce | IP (hours), Induction Period [10]: 32.0 h | inhibition of enzyme activity by the endproduct ([11]; amylopectin, 30 and 120 min incubation): not inhibited

O=C(O)c1cc[c]([Hg][Cl])cc1 [PCMB, p-chloromercuribenzoic acid]
activity decreased by ([12]; 2 mM PCMB): 98% | activity decreased by ([2]; 2 mM PCMB): 60% | inhibition of lyase activity [13]: 96%

OC[C@H]1O[C@H](O[C@H]2[C@H](O)[C@@H](O)[C@@H](O[C@H]3[C@H](O)[C@@H](O)[C@@H](O[C@H]4[C@H](O)[C@@H](O)[C@@H](O[C@H]5[C@H](O)[C@@H](O)[C@@H](O[C@H]6[C@H](O)[C@@H](O)[C@@H](O[C@H]7[C@H](O)[C@@H](O)C(O)O[C@@H]7CO)O[C@@H]6CO)O[C@@H]5CO)O[C@@H]4CO)O[C@@H]3CO)O[C@@H]2CO)[C@H](O)[C@@H](O)[C@@H]1O (some centres unmarked) [Maltoheptaose, maltoheptaose]
lyase activity towards maltosaccharide [14]: lower activity | activity (maltotetraose as 100%) [1]: 76% | relative degrading rate (maltotetraose = 100%) ([1]; substrate 2 mg/ml): 82.2% | relative degrading rate (maltotetraose = 100%) ([1]; substrate 4 mg/ml): 81.5% | relative degrading rate (maltotetraose = 100%) ([1]; substrate 10 mg/ml): 75.7% | Activity (%) (maltotetraose = 100%) [3]: 73.9% | AF released [4]: 865 nmol

OC[C@H]1O[C@H](O[C@H]2[C@H](O)[C@@H](O)C(O)O[C@@H]2CO)[C@H](O)[C@@H](O)[C@@H]1O (mixture of isomers) [Maltose, maltose]
lyase activity towards maltosaccharide [14]: low activity | activity (maltotetraose as 100%) [1]: 2% | decrease of lyase activity (inhibition) ([2]; Amylopectin 2%): (67.2%) | decrease of lyase activity (inhibition) ([2]; Glycogen 2%): (49.7%) | Activity (%) (maltotetraose = 100%) [3]: 10.1% | AF released [4]: 657 nmol | inhibition of lyase reaction ([5]; Amylopectin (1%)): 80% | inhibition of lyase reaction ([5]; Glycogen (1%)): 57% | 1,5-anhydrofructose formed ([11]; 8 mg/ml substrate, pH 6.3, 60 min): almost no 1,5-anhydrofructose was formed

OC[C@H]1NC[C@H](O)[C@@H](O)[C@@H]1O [deoxyjirimycin]
activity decreased to (remaining activity) ([12]; 25 μM, amylopectin 2%): 10.4% | lyase activity ([12]; 100 μM, amylopectin 2%): completely lost | activity decreased to (remaining activity) ([2]; 25 μM, amylopectin 2%): 10.4% | lyase activity ([2]; 100 μM, amylopectin 2%): completely lost

[Cl-].[Na+] [NaCl]
increase of AF yield [15]: up to 1 -fold

Amylopectin
degradation by the fungal lyase [1]: also degraded | relative degrading rate (maltotetraose = 100%) ([1]; substrate 10 mg/ml): 106.5% | stabilizing effect on the lyase ([12]; soluble and immobilized enzyme system): stabilizing effect | Activity (%) (maltotetraose = 100%) [3]: 139.9% | substrate concentration at which half of the maximal velocity rate was reached [4]: 3.76 mg/mL | AF released [4]: 732 nmol | relative reaction rates ([16]; 25 C.): 0.818^a | relative reaction rates ([16]; 30 C.): 1.133^a | relative reaction rates ([16]; 45 C.): 1.17^a
